Measured values taken from ChEMBL document CHEMBL1122749, “Synthesis and biological activity of 5-fluoro-2',3'-dideoxy-3'-fluorouridine and its 5'-phosphate” (J Med Chem, 1984).

How the values were obtained:
[1] = test system: L1210; assay: In vitro concentration required for 50% inhibition (IC50) of growth of L1210 mouse leukemia cells in culture.; type: functional, cell-based
[2] = test system: L1210; assay: In vitro concentration required for 50% inhibition (IC50) of growth of L1210 mouse leukemia cells in culture; type: functional, cell-based
[3] = biological target: T1, Thymidine phosphorylase (Mus musculus, UniProt Q99N42); assay: In vitro non-competitive inhibition of cleavage of Thymidine (dThd) phosphorylase isolated from Lewis lung carcinoma.; type: tissue-based
T1 sequence (Q99N42 whole entry): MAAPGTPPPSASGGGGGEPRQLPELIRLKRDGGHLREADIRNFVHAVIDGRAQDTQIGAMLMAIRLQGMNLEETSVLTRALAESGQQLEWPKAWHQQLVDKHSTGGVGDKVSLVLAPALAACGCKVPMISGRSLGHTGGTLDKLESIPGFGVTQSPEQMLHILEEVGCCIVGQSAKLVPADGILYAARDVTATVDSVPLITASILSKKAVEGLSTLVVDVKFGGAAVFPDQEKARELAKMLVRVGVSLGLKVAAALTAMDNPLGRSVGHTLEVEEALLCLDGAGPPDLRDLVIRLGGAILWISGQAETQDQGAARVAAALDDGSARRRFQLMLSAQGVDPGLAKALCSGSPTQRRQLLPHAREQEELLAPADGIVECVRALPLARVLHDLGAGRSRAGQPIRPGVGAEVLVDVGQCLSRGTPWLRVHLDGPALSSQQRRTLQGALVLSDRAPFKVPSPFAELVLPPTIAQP

[4] = Apparent rate constant Kon for inactivation of dTMP synthase.
[5] = Apparent rate constant Koff for inactivation of dTMP synthase.
[6] = biological target: Thymidylate synthase (Lactobacillus casei); assay: In vitro competitive inhibition of dTMP synthetase with respect to substrate dUMP.

O=c1[nH]c(=O)n([C@H]2C[C@H](O)[C@@H](CO)O2)cc1F [FLOXURIDINE]
IC50 [1]: 0.5 nM

O=c1[nH]c(=O)n([C@H]2C[C@H](F)[C@@H](CO)O2)cc1F
IC50 [2]: 3.4 µM | Ki [3]: 1.7 mM

O=c1[nH]c(=O)n(C2CC(F)C(COP(=O)(O)O)O2)cc1F (stereo unspecified)
Kon [4]: 0.029 s⁻¹ | K off [5]: 0.014 min⁻¹ | Ki [6]: 130 µM
